From paper PMC10683025, “Discovery of a Hydroxylamine-Based Brain-Penetrant EGFR Inhibitor for Metastatic Non-Small-Cell Lung Cancer” (Journal of Medicinal Chemistry, 2023)
Entries after “also recorded” stand apart in the source; their conditions may differ. Where two headings read alike, the source gives them in different places.

Experiments:
LYN = target: T1, LYN (Homo sapiens, UniProt P07948); test: KINOMEScan; format: binding; settings: read-out: Percent Control
T1 construct: purchased Eurofins DiscoverX (contract assay)
Source text: (§3) Percent control was mapped onto the kinome tree using TREEspot.

[1] = target: T2, ABL1(T315I)-phosphorylated (Homo sapiens, UniProt P00519, T315I); test: KINOMEScan; format: binding; settings: read-out: Percent Control
T2 construct: purchased Eurofins DiscoverX
Source text: as §3

TA98 = tested on: TA98; design: species or system Salmonella;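 for Count (# of wells): Revertant-positive wells among 48 replicate wells per concentration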
Protocol: Compounds were assessed for mutagenicity at the Eurofins Panlabs in 384-well plates using four Salmonella strains: TA98, to probe for frameshift mutation (with quercetin as control), TA100 and TA1535, to probe for base pair insertions/deletions (with streptozotocin as control), and TA1537, to probe for frameshift mutations (with aminacridine as control) as previously described.[78] […] A concurrent bacterial cytotoxicity assay was run at 0.6, 1.2, 2.5, 5, 10, 25, 50, and 100 μM to rule out false negatives. Bacterial cytotoxicity was expressed as percent of control growth (OD650). Compounds with growth of less than 60% control were flagged and considered bacterial cytotoxic. […] Significances of the positive counts between the treatment and control were determined using a one-tailed Fisher’s exact test.

[2] = Oral CNS pharmacokinetic assessment; format: in vivo, CD1 mice; settings: male, CD1, brain/plasma, Mouse 40 mg/kg (PO)
Protocol: (§1) Animal experiments were performed at Pharmaron, Inc. and animal use was approved by Pharmaron’s Institutional Animal Care and Use Committee (IACUC) in Pharmaron (Pharmaron IACUC, Protocol #PK-M-07182022, #PK-R-06012022, and #ON-CELL-XEN-06012022) following the guidance of AAALAC. Six- to eight-week-old male Sprague-Dawley rats (approximately 200–300 g) obtained from Si Bei Fu Laboratory Animal Technology Co., six- to eight-week-old male CD1 mice (approximately 20–30 g) obtained from Si Bei Fu Laboratory Animal Technology Co., and six- to eight-week-old female BALB/c nude mice (approximately 20–30 g) obtained from Si Bei Fu Laboratory Animal Technology Co., were used in the pharmacokinetic studies. Six- to eight-week-old female BALB/c nude mice (approximately 18–22 g) obtained from Beijing Anikeeper Biotech Co., Ltd. were used in the intracranial PDX study. […]
(§2) Oral CNS pharmacokinetic assessment of 9 was done by oral gavage (formulation: 1% methylcellulose) followed by blood and brain sampling at 7 time points (0.25, 0.5, 1, 2, 4, 8, 24 h post dose) with n = 3 animals per time point (n = 21 total). […] Concentrations of 9 in the plasma and brain samples were determined using LC-MS/MS and WinNonlin 8.3 (Phoenix) was used for pharmacokinetic calculations. […]

[3] = target: T3, ABL1(M351T)-phosphorylated (Homo sapiens, UniProt P00519, M351T); test: KINOMEScan; format: binding; settings: read-out: Percent Control
T3 construct: purchased Eurofins DiscoverX
Source text: as §3

[4] = Oral CNS pharmacokinetic assessment; format: in vivo, Sprague-Dawley rats; settings: male, Sprague-Dawley, brain, Rat 20 mg/kg (PO)
Protocol: as §1, §2

YSK1 = target: T4, YSK1 (Homo sapiens, UniProt O00506); test: KINOMEScan; format: binding; settings: YSK1, 1 µM; read-out: Percent Control
T4 construct: purchased Eurofins DiscoverX (KINOMEScan service)

ANKK1 = target: T5, ANKK1 (Homo sapiens, UniProt Q8NFD2); test: KINOMEScan; format: binding; settings: ANKK1, 1 µM; read-out: Percent Control
T5 construct: purchased Eurofins DiscoverX (KINOMEscan)
Source text: as §3

AKT1 = target: T6, AKT1 (Homo sapiens, UniProt P31749); test: KINOMEScan; format: binding; settings: AKT1, 1 µM; read-out: Percent Control
T6 construct: purchased Eurofins DiscoverX (KINOMEscan)
Source text: as §3

CHO-K1 cells = test: In vitro micronucleus test; format: cell-based, Chinese hamster; settings: ± rat liver S9; valid to 31 μM + S9 and 8 μM − S9
Protocol: Compound 9 was assessed for genotoxicity by Eurofins Panlabs using the in vitro micronucleus test in Chinese hamster ovary (CHO-K1) cells as previously described.[79] Compound 9 was incubated in a 96-well plate format at varying concentrations (8, 16, 31, 62, 125, 250, 500, and 1000 μM) for 4 h at 37 °C with metabolic activation by rat liver S9 and 24 h at 37 °C without metabolic activation by rat liver S9. High content analysis and fluorescence imaging were used to detect micronuclei and compared against positive controls (cyclophosphamide (ran at 7.2 μM) and mitomycin C (ran at 0.3 μM)). Significances of the positive counts between the treatment and control were determined by one-tailed t test with two-sample equal variance.

ABL1-phosphorylated = target: T7, ABL1-phosphorylated (Homo sapiens, UniProt P00519); test: KINOMEScan; format: binding; settings: read-out: Percent Control
T7 construct: purchased Eurofins DiscoverX
Source text: as §3

T1 sequence (P07948 whole entry): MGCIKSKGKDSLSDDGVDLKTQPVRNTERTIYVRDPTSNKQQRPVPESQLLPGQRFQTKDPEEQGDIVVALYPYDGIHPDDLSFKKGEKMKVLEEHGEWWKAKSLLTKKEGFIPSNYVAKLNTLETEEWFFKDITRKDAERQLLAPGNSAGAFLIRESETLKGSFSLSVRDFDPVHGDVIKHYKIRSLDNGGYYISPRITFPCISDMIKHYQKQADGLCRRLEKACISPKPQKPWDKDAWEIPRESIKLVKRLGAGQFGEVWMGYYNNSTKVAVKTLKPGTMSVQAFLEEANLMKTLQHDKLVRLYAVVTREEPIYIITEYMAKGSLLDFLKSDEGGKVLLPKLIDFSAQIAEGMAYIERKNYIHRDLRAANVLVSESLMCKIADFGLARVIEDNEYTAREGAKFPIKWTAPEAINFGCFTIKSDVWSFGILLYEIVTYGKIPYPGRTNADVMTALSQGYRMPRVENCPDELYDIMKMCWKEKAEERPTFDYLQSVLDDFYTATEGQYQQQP
T6 sequence (P31749 whole entry): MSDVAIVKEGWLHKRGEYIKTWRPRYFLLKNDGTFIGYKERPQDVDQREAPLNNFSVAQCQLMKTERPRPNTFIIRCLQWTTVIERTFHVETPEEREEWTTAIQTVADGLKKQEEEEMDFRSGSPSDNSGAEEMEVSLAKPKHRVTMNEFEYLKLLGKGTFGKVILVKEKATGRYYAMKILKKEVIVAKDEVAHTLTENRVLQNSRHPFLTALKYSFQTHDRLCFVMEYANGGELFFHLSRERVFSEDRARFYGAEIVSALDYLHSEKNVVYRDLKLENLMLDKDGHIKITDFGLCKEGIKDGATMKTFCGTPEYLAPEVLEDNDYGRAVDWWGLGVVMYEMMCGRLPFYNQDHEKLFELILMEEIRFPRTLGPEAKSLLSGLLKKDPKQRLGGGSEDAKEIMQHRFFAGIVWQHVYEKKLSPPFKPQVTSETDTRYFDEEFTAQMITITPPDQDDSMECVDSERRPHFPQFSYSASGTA
T4 sequence (O00506 whole entry): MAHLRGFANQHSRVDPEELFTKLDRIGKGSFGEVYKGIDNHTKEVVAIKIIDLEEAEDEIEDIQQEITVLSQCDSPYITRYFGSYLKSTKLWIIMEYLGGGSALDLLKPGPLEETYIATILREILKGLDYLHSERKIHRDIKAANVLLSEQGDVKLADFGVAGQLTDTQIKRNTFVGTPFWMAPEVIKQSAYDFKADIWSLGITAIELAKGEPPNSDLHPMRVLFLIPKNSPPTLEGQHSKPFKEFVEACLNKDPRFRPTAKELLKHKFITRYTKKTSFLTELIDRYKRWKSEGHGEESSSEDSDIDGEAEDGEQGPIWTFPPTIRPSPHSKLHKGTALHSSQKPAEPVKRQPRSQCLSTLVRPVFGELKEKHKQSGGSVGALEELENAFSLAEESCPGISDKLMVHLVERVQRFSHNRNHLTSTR
T5 sequence (Q8NFD2 whole entry): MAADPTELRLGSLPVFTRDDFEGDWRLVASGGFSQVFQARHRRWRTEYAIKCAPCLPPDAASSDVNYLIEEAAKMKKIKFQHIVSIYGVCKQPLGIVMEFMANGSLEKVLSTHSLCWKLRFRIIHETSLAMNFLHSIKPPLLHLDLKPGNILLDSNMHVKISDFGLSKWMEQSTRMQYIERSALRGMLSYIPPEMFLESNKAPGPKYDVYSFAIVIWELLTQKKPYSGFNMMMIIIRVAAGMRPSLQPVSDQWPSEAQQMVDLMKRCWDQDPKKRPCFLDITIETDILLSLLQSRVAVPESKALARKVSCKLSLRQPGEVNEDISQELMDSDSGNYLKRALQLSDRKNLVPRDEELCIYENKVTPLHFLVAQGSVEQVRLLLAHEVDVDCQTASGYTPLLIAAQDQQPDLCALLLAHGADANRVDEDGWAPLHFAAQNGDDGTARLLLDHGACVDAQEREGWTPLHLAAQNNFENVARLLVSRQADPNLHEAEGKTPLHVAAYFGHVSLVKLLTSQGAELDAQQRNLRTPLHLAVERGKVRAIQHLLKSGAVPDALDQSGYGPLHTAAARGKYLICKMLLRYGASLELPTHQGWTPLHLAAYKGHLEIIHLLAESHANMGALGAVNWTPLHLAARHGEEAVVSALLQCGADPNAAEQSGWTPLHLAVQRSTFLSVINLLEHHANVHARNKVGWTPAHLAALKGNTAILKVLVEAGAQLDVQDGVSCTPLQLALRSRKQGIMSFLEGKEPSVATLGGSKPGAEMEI

## COc1cc2ncnc(Nc3cccc(Cl)c3F)c2cc1OCCON1CCN(C)CC1 [Compound 9, N-(3-Chloro-2-fluorophenyl)-7-methoxy-6-(2-((4-methylpiperazin-1-yl)oxy)ethoxy)quinazolin-4-amine]
LYN
  remaining binding at 1 µM: 7.4%
[1]
  remaining binding at 1 µM: 30%
TA98; TA98+S9, 1.0E-04 M
  Count (# of wells): 0
  Positive Significance (- to +++): -
TA98; TA98+S9, 1.0E-05 M
  Count (# of wells): 2
  Positive Significance (- to +++): -
TA98; TA98+S9, 5.0E-05 M
  Count (# of wells): 1
  Positive Significance (- to +++): -
TA98; TA98+S9, 5.0E-06 M
  Count (# of wells): 0
  Positive Significance (- to +++): -
TA98; TA98-S9, 1.0E-04 M
  Count (# of wells): 0
  Positive Significance (- to +++): -
TA98; TA98-S9, 1.0E-05 M
  Count (# of wells): 0
  Positive Significance (- to +++): -
TA98; TA98-S9, 5.0E-05 M
  Count (# of wells): 2
  Positive Significance (- to +++): -
TA98; TA98-S9, 5.0E-06 M
  Count (# of wells): 0
  Positive Significance (- to +++): -
[2]; read-out: Kp brain (AUCinf)
  Kp at 24 h: 0.77
[2]; read-out: Kp,uu brain (AUCinf)
  Kp uu at 24 h: 0.45
[3]
  remaining binding at 1 µM: 12%
[4]; read-out: Kp brain (AUCinf)
  Kp at 24 h: 0.95
[4]; read-out: Kp,uu brain (AUCinf)
  Kp uu at 24 h: 0.33
YSK1
  remaining binding at 1 µM: 94%
ANKK1
  remaining binding at 1 µM: 97%
AKT1
  remaining binding at 1 µM: 100%
CHO-K1 cells
  In vitro micronucleus: neither mutagenic nor genotoxic potential; also recorded: Negative
ABL1-phosphorylated
  remaining binding at 1 µM: 7.7%
